Test results reported in patent US8143304B2, “(3-amino-1,2,3,4-tetrahydro-9 H-carbazol-9-yl)-acetic acid derivatives” (Actelion Pharmaceutical Ltd., priority 2006, dated 2012).
pIC50: −log10 of the molar value.

Molecular target: T1, hCRTH2 receptor (Homo sapiens, UniProt Q9Y5Y4)
T1 construct: expressed in transfected cells; host or cells: clonal HEK 293 cell line (membrane preparation)
T1 sequence (Q9Y5Y4 1-395): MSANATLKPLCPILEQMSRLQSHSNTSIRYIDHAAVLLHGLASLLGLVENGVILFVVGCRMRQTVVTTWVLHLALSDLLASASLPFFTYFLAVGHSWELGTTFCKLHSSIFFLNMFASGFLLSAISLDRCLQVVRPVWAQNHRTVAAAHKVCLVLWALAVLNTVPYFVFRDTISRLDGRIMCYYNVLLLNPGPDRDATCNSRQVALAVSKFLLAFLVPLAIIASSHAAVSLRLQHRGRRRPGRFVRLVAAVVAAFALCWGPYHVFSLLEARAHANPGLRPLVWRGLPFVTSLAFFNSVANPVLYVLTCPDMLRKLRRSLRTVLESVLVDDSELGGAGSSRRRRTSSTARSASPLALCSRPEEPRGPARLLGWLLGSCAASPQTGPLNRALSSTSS
Test: hCRTH2 receptor membranes radioligand binding assay ({3H}-PGD2)
Details: {3H}-PGD2 2.5 nM, membranes of HEK 293 cells expressing recombinant hCRTH2 receptor; read-out: hCRTH2 Bdg IC50
Procedure: The biological effect of such compounds may be tested in a variety of in vitro, ex vivo and in vivo assays.
Biological Assays: Preparation of hCRTH2 Receptor Membranes and Radioligand Binding Assay:
Cells are detached from culture plates in 5 ml buffer A per plate (5 mM Tris, pH 7.4, 1 mM MgCl2, 0.1 mM PMSF, 0.1 mM phenanthroline) using a police rubber and transferred into centrifugation tubes and frozen at −80° C. After thawing, the cells are centrifuged at 500 g for 5 min and then resuspended in buffer A. Cells are then fragmented by homogenization with a Polytron cell homogenizer for 30 s. The membrane fragments are collected by centrifugation at 3000 g for 40 min and resuspended in buffer B (50 mM Tris, pH 7.4, 25 mM MgCl2, 250 mM saccharose) and aliquots are stored at […].
Binding assay is performed in a total volume of 250 μl. […] For unspecific binding, PGD2 is added to the reaction mixture at 1 μM final concentration. This binding assay mix is incubated at rt for 90 min and then filtered through a GF/C filter plate. The filter is washed three times with ice cold binding buffer C. Then, Microscint-40 (Packard, 40 μl/well) is added and the receptor bound radioactivity is quantified by scintillation counting in a “TopCount” benchtop microplate scintillation counter (Packard).

`O=C(O)Cn1c2c(c3ccccc31)C[C@H](NC(=O)Nc1cccc3ccccc13)CC2` [(3R)-[3-(3-Naphthalen-1-yl-ureido)-1,2,3,4-tetrahydro-9H-carbazol-9-yl]-acetic acid] was tested. Which pIC50 did it give?
The pIC50 was 6.82.

With `CN(C(=O)COCc1ccccc1)[C@H]1CCc2c(c3cc(F)ccc3n2CC(=O)O)C1` [(3S)-{3-[(2-Benzyloxy-acetyl)-methyl-amino]-6-fluoro-1,2,3,4-tetrahydro-9H-carbazol-9-yl}-acetic acid] as the molecule, how does the pIC50 read?
The pIC50 was 7.22.

`COc1cccc2c1CC(C(=O)N[C@H]1CCc3c(c4cc(F)ccc4n3CC(=O)O)C1)CC2` (mixture of isomers) [(3S)-(6-Fluoro-3-{[(2RS)-8-methoxy-1,2,3,4-tetrahydro-naphthalene-2-carbonyl]-amino}-1,2,3,4-tetrahydro-9H-carbazol-9-yl)-acetic acid] was tested. Which pIC50 did it give?
Its pIC50 is 7.74.

`O=C(O)Cn1c2c(c3cc(C(F)(F)F)ccc31)CC(NC(=O)OCc1ccccc1)CC2` (racemic) was tested. Which pIC50 did it give?
The pIC50 was 7.59.

How did the pIC50 turn out when `CC(=O)N(CCc1ccccc1F)[C@H]1CCc2c(c3cc(F)ccc3n2CC(=O)O)C1` [(3S)-(3-{Acetyl-[2-(2-fluoro-phenyl)-ethyl]-amino}-6-fluoro-1,2,3,4-tetrahydro-9H-carbazol-9-yl)-acetic acid] was run?
Its pIC50 is 8.40.

`O=C(O)Cn1c2c(c3cc(F)ccc31)C[C@@H](NC(=O)CCc1cccc(OC(F)(F)F)c1)CC2` [(3S)-{6-Fluoro-3-[3-(3-trifluoromethoxy-phenyl)-propionylamino]-1,2,3,4-tetrahydro-9H-carbazol-9-yl}-acetic acid] was tested. Which pIC50 did it give?
The pIC50 was 7.33.

`CSc1ccc(CCC(=O)N[C@H]2CCc3c(c4cc(F)ccc4n3CC(=O)O)C2)cc1` [(3S)-{6-Fluoro-3-[3-(4-methylsulfanyl-phenyl)-propionylamino]-1,2,3,4-tetrahydro-9H-carbazol-9-yl}-acetic acid] was tested. Which pIC50 did it give?
Its pIC50 is 7.85.

`C[C@@H](Cc1ccccc1)C(=O)N(CCOc1ccccc1)[C@H]1CCc2c(c3cc(F)ccc3n2CC(=O)O)C1` [(3S)-{6-Fluoro-3-[((S)-2-methyl-3-phenyl-propionyl)-(2-phenoxy-ethyl)-amino]-1,2,3,4-tetrahydro-9H-carbazol-9-yl}-acetic acid] was tested. Which pIC50 did it give?
The pIC50 was 7.68.

With `O=C(O)Cn1c2c(c3ccccc31)C[C@H](NC(=O)CCC1CCCC1)CC2` [(3R)-[3-(3-Cyclopentyl-propionylamino)-1,2,3,4-tetrahydro-9H-carbazol-9-yl]-acetic acid] as the molecule, how does the pIC50 read?
The pIC50 was 6.40.

`O=C(O)Cn1c2c(c3cc(F)ccc31)C[C@@H](NC(=O)C1Cc3ccccc3N1)CC2` (stereo partly drawn) [(3S)-{3-[(2,3-Dihydro-1H-indole-2-carbonyl)-amino]-6-fluoro-1,2,3,4-tetrahydro-9H-carbazol-9-yl}-acetic acid] was tested. Which pIC50 did it give?
Its pIC50 is 7.96.

`O=C(O)Cn1c2c(c3ccccc31)C[C@H](NC(=O)Cc1cccs1)CC2` [(3R)-[3-(2-Thiophen-2-yl-acetylamino)-1,2,3,4-tetrahydro-9H-carbazol-9-yl]-acetic acid] was tested. Which pIC50 did it give?
Its pIC50 is 6.53.

`O=C(O)Cn1c2c(c3cc(F)ccc31)C[C@H](NC(=O)CCc1cccc(Cl)c1)CC2` [(3R)-{3-[3-(3-Chloro-phenyl)-propionylamino]-6-fluoro-1,2,3,4-tetrahydro-9H-carbazol-9-yl}-acetic acid] was tested. Which pIC50 did it give?
The pIC50 was 7.41.

`O=C(O)Cn1c2c(c3cc(F)ccc31)C[C@@H](NC(=O)CCc1cc(C(F)(F)F)ccc1C(F)(F)F)CC2` [(3S)-{3-[3-(2,5-Bis-trifluoromethyl-phenyl)-propionylamino]-6-fluoro-1,2,3,4-tetrahydro-9H-carbazol-9-yl}-acetic acid] was tested. Which pIC50 did it give?
The pIC50 was 7.82.

`O=C(O)Cn1c2c(c3cc(F)ccc31)C[C@@H](NC(=O)COc1ccc(Cl)cc1)CC2` [(3S)-{3-[2-(4-Chloro-phenoxy)-acetylamino]-6-fluoro-1,2,3,4-tetrahydro-9H-carbazol-9-yl}-acetic acid] was tested. Which pIC50 did it give?
Its pIC50 is 8.05.

With `O=C(O)Cn1c2c(c3cc(F)ccc31)C[C@@H](N(CC1CCCCC1)C(=O)NCc1ccccc1)CC2` [(3S)-[3-(3-Benzyl-1-cyclohexylmethyl-ureido)-6-fluoro-1,2,3,4-tetrahydro-9H-carbazol-9-yl]-acetic acid] as the molecule, how does the pIC50 read?
Its pIC50 is 8.22.

How did the pIC50 turn out when `O=C(O)Cn1c2c(c3ccccc31)C[C@H](NC(=O)NS(=O)(=O)c1ccccc1)CC2` [(3R)-[3-(3-Phenylsulfonyl-ureido)-1,2,3,4-tetrahydro-9H-carbazol-9-yl]-acetic acid] was run?
The pIC50 was 6.83.

`CCN(C(=O)CCc1ccccc1)[C@H]1CCc2c(c3cc(F)ccc3n2CC(=O)O)C1` [(3S)-{6-Fluoro-3-[ethyl-(3-phenyl-propionyl)-amino]-1,2,3,4-tetrahydro-9H-carbazol-9-yl}-acetic acid] was tested. Which pIC50 did it give?
Its pIC50 is 7.80.

How did the pIC50 turn out when `CC(C)(C)OC(=O)Nc1cccc(CCC(=O)N[C@H]2CCc3c(c4cc(F)ccc4n3CC(=O)O)C2)c1` [(3S)-{3-[3-(3-tert-Butoxycarbonylamino-phenyl)-propionylamino]-6-fluoro-1,2,3,4-tetrahydro-9H-carbazol-9-yl}-acetic acid] was run?
The pIC50 was 7.03.

`O=C(O)Cn1c2c(c3cc(F)ccc31)C[C@@H](NC(=O)c1cc3ccccc3[nH]1)CC2` [(3S)-{6-Fluoro-3-[(1H-indole-2-carbonyl)-amino]-1,2,3,4-tetrahydro-9H-carbazol-9-yl}-acetic acid] was tested. Which pIC50 did it give?
The pIC50 was 6.08.

With `CC(C)COC(=O)N[C@H]1CCc2c(c3ccccc3n2CC(=O)O)C1` [(3S)-(3-Isobutoxycarbonylamino-1,2,3,4-tetrahydro-9H-carbazol-9-yl)-acetic acid] as the molecule, how does the pIC50 read?
The pIC50 was 7.08.

How did the pIC50 turn out when `O=C(O)Cn1c2c(c3ccccc31)C[C@@H](NC(=O)OCCOCc1ccccc1)CC2` [(3S)-[3-(2-Benzyloxy-ethoxycarbonylamino)-1,2,3,4-tetrahydro-9H-carbazol-9-yl]-acetic acid] was run?
Its pIC50 is 6.93.

With `O=C(O)Cn1c2c(c3cc(F)ccc31)C[C@@H](NC(=O)CCc1ccc(Cl)cc1Cl)CC2` [(3S)-{3-[3-(2,4-Dichloro-phenyl)-propionylamino]-6-fluoro-1,2,3,4-tetrahydro-9H-carbazol-9-yl}-acetic acid] as the molecule, how does the pIC50 read?
The pIC50 was 7.80.

How did the pIC50 turn out when `O=C(O)Cn1c2c(c3cc(F)ccc31)C[C@@H](NC(=O)CCc1ccccc1O)CC2` [(3S)-{6-Fluoro-3-[3-(2-hydroxy-phenyl)-propionylamino]-1,2,3,4-tetrahydro-9H-carbazol-9-yl}-acetic acid] was run?
Its pIC50 is 7.48.

With `O=C(O)Cn1c2c(c3cc(F)ccc31)C[C@@H](NC(=O)CC(c1ccccc1)c1ccccc1)CC2` [(3S)-[3-(3,3-Diphenyl-propionylamino)-6-fluoro-1,2,3,4-tetrahydro-9H-carbazol-9-yl]-acetic acid] as the molecule, how does the pIC50 read?
Its pIC50 is 8.70.

How did the pIC50 turn out when `COc1cccc(NC(=O)CC(Cc2ccccc2)C(=O)N[C@H]2CCc3c(c4cc(F)ccc4n3CC(=O)O)C2)c1` (mixture of isomers) [(3S)-{3-[(RS)-2-Benzyl-3-(3-methoxy-phenylcarbamoyl)-propionylamino]-6-fluoro-1,2,3,4-tetrahydro-9H-carbazol-9-yl}-acetic acid] was run?
The pIC50 was 8.22.

With `CS(=O)(=O)c1ccc(CCC(=O)N[C@H]2CCc3c(c4cc(F)ccc4n3CC(=O)O)C2)cc1` [(3S)-{6-Fluoro-3-[3-(4-methanesulfonyl-phenyl)-propionylamino]-1,2,3,4-tetrahydro-9H-carbazol-9-yl}-acetic acid] as the molecule, how does the pIC50 read?
Its pIC50 is 7.14.

How did the pIC50 turn out when `O=C(O)Cn1c2c(c3ccccc31)C[C@H](NC(=O)c1ccccc1)CC2` [(3R)-(3-Benzoylamino-1,2,3,4-tetrahydro-9H-carbazol-9-yl)-acetic acid] was run?
Its pIC50 is 6.31.

How did the pIC50 turn out when `CCCCNC(=O)N[C@H]1CCc2c(c3ccccc3n2CC(=O)O)C1` [(3S)-[3-(3-Butyl-ureido)-1,2,3,4-tetrahydro-9H-carbazol-9-yl]-acetic acid] was run?
Its pIC50 is 6.05.

How did the pIC50 turn out when `Cc1ccc(CCC(=O)N[C@@H]2CCc3c(c4cc(F)ccc4n3CC(=O)O)C2)cc1` [(3R)-[6-Fluoro-3-(3-p-tolyl-propionylamino)-1,2,3,4-tetrahydro-9H-carbazol-9-yl]-acetic acid] was run?
Its pIC50 is 7.21.

How did the pIC50 turn out when `COCCN(C(=O)CCc1ccccc1OC)[C@H]1CCc2c(c3cc(F)ccc3n2CC(=O)O)C1` [(3S)-(6-Fluoro-3-{(2-methoxy-ethyl)-[3-(2-methoxy-phenyl)-propionyl]-amino}-1,2,3,4-tetrahydro-9H-carbazol-9-yl)-acetic acid] was run?
The pIC50 was 8.22.

`O=C(O)Cn1c2c(c3cc(F)cc(Cl)c31)CC(NC(=O)CCc1ccccc1)CC2` (racemic) was tested. Which pIC50 did it give?
Its pIC50 is 7.24.

With `O=C(O)Cn1c2c(c3cc(F)ccc31)C[C@@H](NC(=O)CCc1ccc3c(c1)OCO3)CC2` [(3S)-[3-(3-Benzo[1,3]dioxol-5-yl-propionylamino)-6-fluoro-1,2,3,4-tetrahydro-9H-carbazol-9-yl]-acetic acid] as the molecule, how does the pIC50 read?
The pIC50 was 7.82.
